Data as given in patent US6787562B2, “Substituted aryl and heteroaryl compounds as E-type prostaglandin antagonists” (Zeneca Ltd., priority 1995, dated 2004).

Tests used:
[1] = test system: dog fundus; details: cited from earlier work
[2] = test system: guinea pig ileum; details: cited from earlier work

SMILES	melting point [°C]	effect of PGE2 on tissue blocked [1]	effect of PGE2 on tissue blocked [2]
O=C(O)c1ccc(OCc2ccccc2CCc2ccccc2)cc1 [Example 23, 4-(2-(phenethyl)benzyloxy)benzoic Acid]	178 to 180	–	–
O=C(Nc1cccnc1)c1ccc(SCc2ccccc2OCc2ccccc2)cc1 [Example 19, N-(3-Pyridyl)-4-[2-benzyloxybenzylthio]benzamide]	108	–	–
O=C(O)c1ccc(OCc2ccccc2OCc2ccccc2)cc1 [Example 21, 4-(2-(Benzyloxy)benzyloxy)benzoic Acid]	176.8 to 178.8	–	–
O=C(O)c1ccc(SCc2ccccc2OCc2ccccc2)cc1 [Example 18, 4-[2-Benzyloxybenzylthio]benzoic Acid]	144	–	–
CC(=O)NNC(=O)N1Cc2ccccc2Oc2ccc(Cl)cc21 [SC-19220]	–	blocks the effect of PGE2	blocks the effect of PGE2
O=C(O)c1ccc(CNc2cc(Br)ccc2OCc2ccccc2)cc1 [Example 37, 4-[N-(2-Benzyloxy-5-bromophenyl)aminomethyl]benzoic Acid]	216 to 217	–	–
O=C(O)c1ccc(CCCc2ccccc2Cc2ccccc2)cc1 [Example 34, 4-[3-(2-benzylphenyl)propyl]benzoic Acid]	135 to 136	–	–
O=C(O)c1ccc(CCc2ccccc2CCc2ccccc2)cc1O [Example 33, 2-Hydroxy-4-[(2-phenethyl)phenethyl]benzoic Acid]	134 to 137	–	–
CC(Nc1cc(Br)ccc1OCc1ccccc1)c1ccc(C(=O)O)cc1 (centres unmarked) [Example 39, 4-[1-(N-(2-Benzyloxy-5-bromophenyl)-amino)ethyl]benzoic Acid]	186.5 to 187	–	–
O=C(O)c1ccc(NCc2cc(Br)ccc2CCc2ccccc2)cc1 [Example 4, 4-[N-(5-Bromo-2-(phenethyl)benzyl)amino]Benzoic Acid]	126 to 127	–	–
CCN(Cc1ccccc1Oc1ccccc1)c1ccc(C(=O)O)nn1 [Example 12, 6-(N-Ethyl-N-(2-phenoxybenzyl)amino)pyridazine-3-carboxylic Acid]	70 to 75	–	–
CC(c1ccc(C(=O)O)cc1)N(C)c1ccc(Br)cc1OCc1ccccc1 (centres unmarked) [Example 40, 4-[1-(N-(2-Benzyloxy-4-bromophenyl)-N-methylamino)ethyl]benzoic Acid]	181.5 to 182	–	–
O=C(O)c1ccc(CCCc2ccccc2Sc2ccccc2)cc1 [Example 32, 4-[3-(2-(phenylthio)phenyl)propyl]benzoic Acid]	90 to 91	–	–
CCN(Cc1ccc(C(=O)O)cc1)c1cc(Br)ccc1OCc1ccccc1 [Example 38, 4-[N-(2-Benzyloxy-5-bromophenyl)-N-ethylaminomethyl]benzoic Acid]	94.5 to 95	–	–
CCN(Cc1ccccc1Oc1ccccc1)c1ccc(C(=O)O)cn1 [Example 13, 2-(N-ethyl-N-(2-phenoxybenzyl)amino)pyridine-5-carboxylic Acid]	170.5 to 172	–	–
CC(Oc1ccc(C(=O)O)cc1)c1ccccc1OCc1ccccc1 (centres unmarked) [Example 22, 4-(1-(2-(Benzyloxy)phenyl)ethoxy)benzoic Acid]	108	–	–
